In patent US10912819B2, “Neuroprotective peptides derived from activity-dependent neuroprotective protein for treatment of neurological diseases” (priority 2016, dated 2021):
Entries after “also recorded” stand apart in the source; their conditions may differ.

Tests used:
Adnp^+/− mice [1] = experiment: Odor discrimination test; format: in vivo
Experimental: As social memory depends on olfactory function, NAP treatment was also tested in odor discrimination test. Odors were presented on a suspended cotton swab to the test mouse placed into the clean cage with fresh shavings. Each mouse was tested during three consecutive 2-min periods for each odor, with 2-min intervals between presentations. The x axis indicates the consecutive number of the odor exposure period. The time that the mouse smelled the swab was recorded (beginning whenever the animal oriented its nostrils toward the cotton swab, within 2 cm or less). (Malishkevich et al., Transl Psychiatry (2015) 5, e501; Amram et al., Mol Psychiatry. 2016 10:1467-76).

Adnp^+/− mice [2] = experiment: Elevated plus maze test; format: in vivo; conditions: male mice, 5 min, NAP new formulation (CB); NAP-treated vs Adnp^+/− p<0.001
Experimental: FIG. 4. […] The relative time spent in the open/closed arms for 5 min is presented (n=9-12 per group). Data are expressed as mean±SEM. D2 calculates the exploration time of the open arms (a) and the exploration time of the closed arms (b).
Experiments performed as we described in Malishkevich et al., 2015 (37) and Amram et al., Mol Psychiatry. 2016 October; 21(10):1467-76 (7). 3-6 month-old male mice were used, drug application (0.5 μg/5 μl/mouse) was once daily, for one month and then behavioral assays were initiated together with drug application. In experiments with the vehicle termed DD (NAP-benzalkonium), drug application was at 2 months of age and continued as above. Open field experiments (16, 17) and elevated plus maze evaluations (18) were carried out as before.
Experiments were performed as described (18), assessing the different times spent in open arms (indicative of exploratory behavior) versus closed arms (indicative of anxious behavior) in the elevated plus maze (FIG. 4).

Adnp^+/− mice [3] = experiment: Hanging wire test; format: in vivo
Text: The hanging wire test measures the strength of the mouse paws by using the latency to fall off from an inverted cage lid (placed 50 cm above the surface) onto a soft bedding (maximum time 120 sec). Data are expressed as mean±SEM.

Adnp^+/− mice [4] = experiment: Grip strength test; format: in vivo; conditions: male mice, treatment from 2 months of age, 0.5 μg NAP/mouse/day intranasal in DD, 5 weeks; p<0.05
Experimental: The grip strength test measures forelimbs muscle strength using the UgoBasile 47200-Grip-Strength Meter. Each animal was tested five times and the peak force of each mouse was recorded. Data are expressed as mean±SEM.

Foxp2 = Foxp2 mRNA expression in the tongue, quantitative real-time PCR; format: in vivo; conditions: 4-month-old mice treated with NAP/DD, normalized to Gapdh; increased in Adnp-deficient mice
Experimental: (B) Foxp2 (the language-linked gene) expression in the tongue is increased in Adnp-deficient mice and is normalized by NAP. Tongue total RNA was extracted from 4-month-old mice (treated with NAP/DD as above) and analyzed for Foxp2 and Gapdh mRNA expression by quantitative real-time PCR (n=3-7 animals per experimental group). Gapdh served as a normalizing transcript. […] Two-way ANOVA analysis was performed using SigmaPlot. Sexual dichotomy determined by t-test analysis was also observed for the increased Foxp2 expression between Adnp males and females (**p<0.01).
(§1) Quantitative reverse transcription real time polymerase chain reaction (RT-PCR) was performed as before (18, 37).

Akap6 = experiment: Hippocampal Akap6 mRNA expression, quantitative real-time PCR; format: in vivo; conditions: 7.5-month-old mice treated with NAP/CB, normalized to Hprt
Experimental: (§2) In females, NAP regulates genes deregulated with ADNP mutation in the hippocampus. […] Sexual dichotomy determined by t-test analysis was also observed for Akap6 and Chl1 expression between Adnp^+/− males and females (#p<0.05, ##p<0.01, ###p<0.001).
as §1

Chl1 = experiment: Hippocampal Chl1 mRNA expression, quantitative real-time PCR; format: in vivo; conditions: 7.5-month-old mice treated with NAP/CB, FIG. 8F
Experimental: as §2, §1

[5] = system: microtubule end binding protein 1 and 3 (EB1 and EB3) comets in living N1E-115; experiment: Live imaging of EB1/EB3 comets in N1E-115 cells carrying ADNP mutations; format: cell-based; conditions: p.Tyr719*/p.Lys404Valfs*31 ADNP, 4 hours NAP treatment (10^−12M)
Text: FIG. 10: NAP ameliorates cytoskeletal deficiencies associated with ADNP mutations. Human ADNP mutated cDNA was cloned into plasmids as described (Ivashko-Pachima et al., Molecular Psychiatry 2017, in press). The mutations cloned included the p.Tyr719* ADNP, the most common ADNP mutation (Gozes et al., Frontiers in Endocrinology, under revisions) and the p.Lys408Valfs31*, the first de novo ADNP mutation identified (reviewed in Gozes et al., J Mol Neurosci (2015) 56:751-757.
The effects of ADNP carried p.Tyr719*/p.Lys404Valfs*31 mutation on microtubule end binding protein 1 and 3 (EB1 and EB3) comets in living N1E-115 is shown. For experimental details see, Ivashko-Pachima et al., Molecular Psychiatry 2017, in press. (A) Live imaging of N1E-115 cells. EB1-RFP (red) co-transfected with full ADNP/p.Tyr719*/p.Lys404Valfs*31 carrying plasmids before and after 4 hours NAP treatment (10^−12M) (panel A1). […] (B-C) EB1 Quantification of average track length, comet speed, comet length and number of comets/100 μm^2 (total number of comets: ADNP (full) before treatment n=2639/1 I cells, ADNP (full) after NAP treatment n=3107/15cells, ADNP p.Tyr719* before treatment n=1910/14cells, ADNP p.Tyr719* after NAP treatment n=3990/16cells, ADNP p.Lys404Valfs*31 before treatment n=1082/6cells, ADNP p.Lys404Valfs*31 after NAP treatment n=694/5cells). […]

[6] = system: amnestic mild cognitive impairment patients; conditions: clinical study; cited from earlier work
schizophrenia patients = conditions: clinical study; cited from earlier work
[7] = 5-month-old mice, 0.5 μg NAP/mouse/day intranasal in CB, 3 weeks, p<0.05

Structure (SMILES): CC[C@H](C)[C@H](NC(=O)[C@H](CO)NC(=O)[C@@H](NC(=O)[C@@H]1CCCN1C(=O)[C@H](C)NC(=O)[C@@H](N)CC(N)=O)C(C)C)C(=O)N1CCC[C@H]1C(=O)N[C@@H](CCC(N)=O)C(=O)O [NAP]
- general olfaction ability (AUC), males (Adnp^+/− mice [1]; 2-month-old mice (n=3-4), NAP intranasal in DD, 8 weeks, two-way ANOVA p=0.046): main effect for treatment
- general olfaction ability (AUC), females (Adnp^+/− mice [1]; 5-month-old mice, NAP intranasal in CB, 9 weeks, NAP vs vehicle p<0.01): significant difference
- general olfaction ability (AUC), males (Adnp^+/− mice [1]; 5-month-old mice, NAP intranasal in CB, 9 weeks, NAP vs vehicle p<0.05): significant difference
- general change in olfactory behavior (Adnp^+/− mice [1]; FIG. 3D-G, both sexes, CB and DD): apparently normalized
- increased anxiety: relative time spent in open/closed arms (Adnp^+/− mice [2]): ameliorated
- latency to fall, males (Adnp^+/− mice [3]; 2-month-old mice, 0.5 μg NAP/mouse/day intranasal in DD, 5 weeks, p<0.01): improved
- latency to fall, females (Adnp^+/− mice [3]; [7]): significant difference
- latency to fall, males (Adnp^+/− mice [3]; [7]): significant difference
- forelimbs muscle strength (grip force) (Adnp^+/− mice [4]): significantly improving it
- Foxp2 expression in the tongue, females (Foxp2): decreasing it
- Foxp2 expression in the tongue, males (Foxp2): normalizing it
- hippocampal Akap6 expression, females, NAP-treated vs vehicle-treated Adnp^+/− mice (Akap6): ameliorated; also recorded: significantly increased expression
- hippocampal Chl1 expression (Chl1): also regulated by NAP
- changes in microtubule dynamics (EB1/EB3 comets) caused by ADNP mutations [5]: ameliorated, in part
- cognitive scores [6]: increase in cognitive scores
- functional activities of daily living (schizophrenia patients): protection of functional activities of daily living
